The source of these data is US20220251109A1, “OXAAZAQUINAZOLINE-7(8H)-KETONE COMPOUND, PREPARATION METHOD THEREFOR AND PHARMACEUTICAL APPLICATION THEREOF” (GENFLEET THERAPEUTICS (SHANGHAI) INC., priority 2019, published 2022).

Like-named read-outs stand apart in the source and are kept apart here. A value given as a limit tells only on which side of the number the result lay.

Common to all, as to format: cell-based, human
Assay [1] deals with NCI-H358 cells (Kras G12C mutation). Description: Cell proliferation inhibition experiment, 3D model, CellTiter-Glo (NCI-H358). The note with it: NCI-H358, 3D sphere plate, 5 days, 2% FBS. Here is the method: (§1) NCI-H358 was a human non-small cell lung cancer cell line with Kras G12C mutation, cultured in 10% FBS RPMI-1640 medium; A549 was a human lung adenocarcinoma cell line with Kras G12S mutation, cultured in 10% FBS F-12K medium. The cells in the logarithmic growth phase was taken, digested with trypsin EDTA, collected and counted, and H358 was adjusted to 1.8E4 cells/ml using 2% FBS RPMI-1640 medium, and A549 was adjusted to 8.9E3 cells/ml using 2% FBS F-12K medium; 800 (45 μl) H358 or 400 (45 μl) A549 cells were seeded in a 384-well sphere plate respectively, cultured overnight to establish a 3D cell model. DMSO was used to prepare 1000× compound 3.16-fold gradient concentration stock solution, and 2% FBS medium was used to dilute 100-fold to 10× compound stock solution. On the second day after cell seeding, 5 μl 10× compound stock solution was added to each cell culture well, the final concentration was 1×, and DMSO content was 0.1%. DMSO was used as the experimental control (control) and 2% FBS medium as the blank control (blank). After the compound and cells were added and cultured for 5 days, 25 μl CellTiter-Glo working solution was added to each well, mixed at 400 rpm and incubated for 30 minutes. After 30 minutes at room temperature, 40 μl of the mixture was transferred to a 384-well plate with a non-transparent white bottom, the luminescence chemiluminescence value was read, and the cells proliferation inhibition rate IR (%)=(RLU control-RLU compound)/(RLU control-RLU blank)×100% was calculated, Prism 6 four-parameter method was used to fit the compound's gradient dilution concentration and the corresponding cell proliferation inhibition rate, and the IC50 value was calculate.

The subject of assay [2] is A549 cells (Kras G12S mutation). The assay is described as follows: Cell proliferation inhibition experiment, 3D model, CellTiter-Glo (A549). The note with it: A549, 3D sphere plate, 5 days, 2% FBS. Here is the method:
as §1

Assay [3] has as its system MIA PaCa-2 cells (Kras G12C mutation). Description: Cell proliferation inhibition experiment, 3D model, CellTiter-Glo (MIA PaCa-2). The note with it: MIA PaCa-2, 3D sphere plate, 5 days, read-out: MIA-PaCa2 IC50. On the procedure: MIA PaCa2 was a human pancreatic cancer cell line with Kras G12C mutation, cultured in 10% FBS+2.5% Horse serum DMEM medium; A549 was a human lung adenocarcinoma cell line with Kras G12S mutation, cultured in 10% FBS F-12K medium. The cells in the logarithmic growth phase were taken, digested with enzyme EDTA, collected, counted and 200 MIA PaCa-2 or 400 A549 cells were seeded in a 384-well sphere plate respectively, cultured overnight to establish a 3D cell model. DMSO was used to prepare 1000× compound 3.16-fold gradient concentration stock solution, and medium was used to dilute 100-fold to 10× compound stock solution. On the second day after cell seeding, 10× compound stock solution was added to each cell culture well, the final concentration was 1×, and DMSO content was 0.1%. DMSO was used as an experimental control (control), medium as the blank control (blank). After the compound and cells were added and cultured for 5 days, 30 μl CellTiter-Glo working solution was added to each well, mixed and incubated for 30 minutes. After 30 minutes at room temperature, 40 μl of the mixture was transferred to a 384-well plate with a non-transparent white bottom, the luminescence chemiluminescence value was read, and the cells proliferation inhibition rate IR (%)=(RLU control-RLU compound)/(RLU control-RLU blank)×100% was calculated, XLFit four-parameter method was used to fit the compound's gradient dilution concentration and the corresponding cell proliferation inhibition rate, and the IC50 value was calculate.

[4] abbreviates: Homo sapiens, MIA PaCa-2, 120 h.

Take `C=CC(=O)N1CCN2c3nc(=O)n(-c4c(C)ccnc4C(C)C)c4cc(-c5c(O)cccc5F)cc(c34)OC[C@@H]2C1` (atropisomer, axis not shown) [Compound Z15-2]: the half-inhibitory concentration (IC50) in assay [1] worked out at 0.149 µM; in assay [2], 29.8 µM; in assay [3], 0.261 µM.

Consider `C=CC(=O)N1CCN2c3nc(=O)n(-c4c(C)ccnc4C(C)C)c4cc(-c5c(C)ccc6[nH]ncc56)c(Cl)c(c34)OC[C@@H]2C1` (atropisomer, axis not shown) [Compound Z26-2-2], for which the IC50 in assay [1] is 0.002 µM; in assay [2] it was over 10 µM; in assay [3], 0.003 µM.

Consider `C=CC(=O)N1CCN2c3nc(=O)n(-c4c(C)ccnc4C(C)C)c4cc(-c5c(C)ccc6[nH]ncc56)c(Cl)c(c34)OC[C@H]2C1` (atropisomer, axis not shown) [Compound Z30-2-2], for which the values for the IC50 in assay [1], in assay [2] and in assay [3] were 0.003 µM, over 10 µM and 0.004 µM, respectively.

Regarding `C=CC(=O)N1CCN2c3nc(=O)n(-c4c(C)ccnc4C(C)C)c4cc(-c5c(O)cccc5F)cc(c34)OC[C@@H]2C1` (single isomer, unassigned) [Compound Z15-1], the IC50 turned out to be 0.017 µM in assay [1], 22.2 µM in assay [2] and 0.02 µM in assay [3].

Take `C=CC(=O)N1CCN2c3nc(=O)n(C4CC4)c4cc(-c5c(C)ccc6[nH]ncc56)c(Cl)c(c34)OC[C@@H]2C1` (single isomer, unassigned) [Compound Z17-2]: the 50% inhibitory concentration (IC50) in assay [1] (Homo sapiens, NCI-H358, 120 h) was 0.037 µM; in assay [2] (Homo sapiens, A549, 120 h) it was 12.8 µM; in assay [3] (setting [4]), 0.033 µM.

For the compound `C=CC(=O)N1CCN2c3nc(=O)n(-c4c(C)ccnc4C(C)C)c4cc(-c5c(C)ccc6[nH]ncc56)cc(c34)OC[C@@H]2C1` (single isomer, unassigned) [Compound Z19-2], the figures for the IC50 in assay [1], in assay [2] and in assay [3] (setting [4]) were 0.025 µM, 12 µM and 0.024 µM, respectively.

Regarding `C=CC(=O)N1CCN2c3nc(=O)n(-c4ccccc4C(C)C)c4cc(-c5c(C)ccc6[nH]ncc56)c(Cl)c(c34)OC[C@@H]2C1` (single isomer, unassigned) [Compound Z20-1], the IC50 amounted to 0.01 µM in assay [1], 12.2 µM in assay [2] and 0.017 µM in assay [3].

Take `C=CC(=O)N1CCN2c3nc(=O)n(-c4ccccc4C(C)C)c4cc(-c5c(C)ccc6[nH]ncc56)c(Cl)c(c34)OC[C@@H]2C1` (single isomer, unassigned) [Compound Z20-2]: the half-inhibitory concentration (IC50) in assay [1] came out at 0.046 µM; in assay [2], 5.95 µM; in assay [3] it was 0.173 µM.

For `C=CC(=O)N1CCN2c3nc(=O)n(-c4ccccc4C(C)C)c4cc(-c5c(C)ccc6[nH]ncc56)c(Cl)c(c34)OC[C@@H]2C1` (single isomer, unassigned) [Compound Z20-3], the concentration for half-maximal inhibition (IC50) in assay [1] is 0.0006 µM; in assay [2], over 10 µM; in assay [3], 0.0005 µM.

As for `C=CC(=O)N1CCN2c3nc(=O)n(-c4ccccc4C(C)C)c4cc(-c5c(C)ccc6[nH]ncc56)c(Cl)c(c34)OC[C@@H]2C1` (single isomer, unassigned) [Compound Z20-4], the IC50 was 0.026 µM in assay [1], 2.67 µM in assay [2] and 0.051 µM in assay [3].

Turning to `C=CC(=O)N1CCN2c3nc(=O)n(-c4c(C)ccnc4C(C)C)c4cc(-c5c(C)ccc6[nH]ncc56)c(Cl)c(c34)OC[C@@H]2C1` (single isomer, unassigned) [Compound Z26-1], the IC50 came out at 0.031 µM in assay [1]; 13.8 µM in assay [2] (Homo sapiens, A549, 120 h); 0.074 µM in assay [3].

In the case of `C=CC(=O)N1CCN2c3nc(=O)n(-c4c(C)ccnc4C(C)C)c4cc(-c5c(C)ccc6[nH]ncc56)c(Cl)c(c34)OC[C@@H]2C1` (single isomer, unassigned) [Compound Z26-2], the IC50 in assay [1] is 0.001 µM; in assay [2], over 10 µM; in assay [3] it was 0.004 µM.

Turning to `C=CC(=O)N1CCN2c3nc(=O)n(-c4c(C)ccnc4C(C)C)c4cc(-c5c(O)cccc5F)c(Cl)c(c34)OC[C@H]2C1` (single isomer, unassigned) [Compound Z29-1], the results for the IC50 in assay [1], in assay [2] and in assay [3] were 0.003 µM, over 10 µM and 0.008 µM, respectively.

As to `C=CC(=O)N1CCN2c3nc(=O)n(-c4c(C)ccnc4C(C)C)c4cc(-c5c(O)cccc5F)c(Cl)c(c34)OC[C@H]2C1` (single isomer, unassigned) [Compound Z29-2], the IC50 in assay [1] is 0.005 µM; in assay [2], over 10 µM; in assay [3] it was 0.006 µM.

Regarding `C=CC(=O)N1CCN2c3nc(=O)n(-c4c(C)ccnc4C(C)C)c4cc(-c5c(O)cccc5F)c(Cl)c(c34)OC[C@H]2C1` (single isomer, unassigned) [Compound Z29-4], the IC50 was 0.044 µM in assay [1], over 10 µM in assay [2] and 0.358 µM in assay [3].

With `C=CC(=O)N1CCN2c3nc(=O)n(-c4c(C)ccnc4C(C)C)c4cc(-c5c(C)ccc6[nH]ncc56)c(Cl)c(c34)OC[C@H]2C1` (single isomer, unassigned) [Compound Z30-1], the IC50 turned out to be 0.065 µM in assay [1], 25 µM in assay [2] and 0.078 µM in assay [3].

With `C=CC(=O)N1CCN2c3nc(=O)n(-c4c(C)ccnc4C(C)C)c4cc(-c5c(C)ccc6[nH]ncc56)c(Cl)c(c34)OC[C@H]2C1` (single isomer, unassigned) [Compound Z30-2], the half-inhibitory concentration (IC50) came to 0.002 µM in assay [1], 20.7 µM in assay [2] and 0.005 µM in assay [3].

As to `C=CC(=O)N1CCN2c3nc(=O)n(-c4c(C)ccnc4C(C)C)c4nc(-c5c(O)cccc5F)cc(c34)OC[C@@H]2C1` (single isomer, unassigned) [Compound Z36-2], the IC50 was found to be 0.068 µM in assay [1] (Homo sapiens, NCI-H358, 120 h); 14.4 µM in assay [2] (Homo sapiens, A549, 120 h); 0.121 µM in assay [3] (setting [4]).

As to `[2H]C([2H])([2H])Oc1cccc(F)c1-c1nc2c3c(nc(=O)n2-c2c(C)ccnc2C(C)C)N2CCN(C(=O)C=C)C[C@@H]2COc3c1F` (single isomer, unassigned) [Compound Z100-1], the half-inhibitory concentration (IC50) in assay [1] is 0.002 µM; in assay [2] (Homo sapiens, A549, 120 h) it was 19.7 µM; in assay [3] (setting [4]), 0.004 µM.

For the compound `C=CC(=O)N1CCN2c3nc(=O)n(-c4c(C)ncnc4C(C)C)c4nc(-c5c(O)cccc5F)c(F)c(c34)OC[C@H]2C1` (single isomer, unassigned) [Compound Z101-1], the IC50 in assay [1] is 0.042 µM; in assay [2] (Homo sapiens, A549, 120 h), over 10 µM; in assay [3], 0.056 µM.

On to `C=CC(=O)N1CCN2c3nc(=O)n(-c4c(C)ncnc4C(C)C)c4nc(-c5c(O)cccc5F)c(F)c(c34)OC[C@H]2C1` (single isomer, unassigned) [Compound Z101-2], for which the concentration for half-maximal inhibition (IC50) is 0.003 µM in assay [1], over 10 µM in assay [2] and 0.003 µM in assay [3].

For `C=CC(=O)N1CCN2c3nc(=O)n(-c4cccnc4C(C)C)c4cc(-c5c(C)ccc6[nH]ncc56)c(Cl)c(c34)OC[C@@H]2C1` [Compound Z39], the half-maximal inhibitory concentration (IC50) in assay [3] (setting [4]) amounted to 0.444 µM.

Regarding `C=CC(=O)N1CCN2c3nc(=O)n(-c4c(C)ccnc4C(C)C)c4nc(-c5c(F)cccc5C(F)(F)F)c(Cl)c(c34)OC[C@@H]2C1` [Compound Z70], the 50% inhibitory concentration (IC50) was 0.042 µM in assay [1] (Homo sapiens, NCI-H358, 120 h) and over 10 µM in assay [2] (Homo sapiens, A549, 120 h).

In the case of `C=CC(=O)N1CCN2c3nc(=O)n(-c4c(C)ccnc4C(C)C)c4nc(-c5cccnc5C)c(Cl)c(c34)OC[C@@H]2C1` [Compound Z78], the concentration for half-maximal inhibition (IC50) in assay [1] (Homo sapiens, NCI-H358, 120 h) was 0.254 µM; in assay [2] (Homo sapiens, A549, 120 h), over 10 µM.

Regarding `C=CC(C)N1CCN2c3nc(=O)n(-c4c(C)ccnc4C(C)C)c4nc(-c5cnccc5C)c(Cl)c(c34)OC[C@@H]2C1` (stereo partly shown) [Compound Z81], the IC50 in assay [1] (Homo sapiens, NCI-H358, 120 h) was 0.204 µM; in assay [2] (Homo sapiens, A549, 120 h), over 10 µM.
